Values after ≈ are worked out from the molar mass of the structure shown. Like-named read-outs stand apart in the source and are kept apart here. Marks after values point to notes of the source that are not given here.
How the values were obtained:
[1] = system: P. aeruginosa ATCC 35151; test: MIC by micro-liquid dilution method (CLSI); format: cell-based; conditions: Pseudomonas aeruginosa
[2] = system: A. baumannii ATCC 17978; test: MIC by micro-liquid dilution method (CLSI); format: cell-based; conditions: Acinetobacter baumannii
[3] = system: K. pneumoniae ATCC BAA-205 (TEM-1/SHV-1/SHV-12); test: MIC by micro-liquid dilution method (CLSI); format: cell-based, Klebsiella pneumonia; conditions: Klebsiella pneumoniae, ATCCBAA205
[4] = system: P. aeruginosa PA 14; test: MIC by micro-liquid dilution method (CLSI); format: cell-based; conditions: Pseudomonas aeruginosa, PA14
Source text: (§1) Three strains of Klebsiella pneumonia, K. pneumoniae ATCC BAA-205 (TEM-1/SHV-1/SHV-12), K. pneumoniae ATCC BAA-1705 (KPC-2), K. pneumoniae ATCC BAA-2470 (NDM-1); three strains of Pseudomonas aeruginosa, P. aeruginosa NCTC13437 (VIM-10; VEB-1), P. aeruginosa PA 14 and P. aeruginosa ATCC 35151; four strains of Escherichia coli, E. coli NCTC 13476 (IMP-1 type), E. coli ATCC BAA-2523 (OXA-48), E. coli MG1655Δtol C, E. coli ATCC 25922; one strain of Acinetobacter baumannii, A. baumannii ATCC 17978 and one strain of Staphylococcus aureus, S. aureus NRS384 were used to determine the minimum inhibitory concentration (MIC) of the compounds by micro-liquid dilution method according to the Institute of Clinical and Laboratory Standard (CLSI) requirements.

[5] = system: E. coli MG1655Δtol C; test: MIC by micro-liquid dilution method (CLSI); format: cell-based; conditions: Escherichia coli
Source text: as §1

[6] = system: E. coli ATCC BAA-2523 (OXA-48); test: MIC by micro-liquid dilution method (CLSI); format: cell-based; conditions: Escherichia coli, ATCCBAA2523
Source text: as §1

[7] = system: E. coli NCTC 13476 (IMP-1 type); test: MIC by micro-liquid dilution method (CLSI); format: cell-based; conditions: Escherichia coli
Source text: as §1

[8] = system: E. coli ATCC 25922; test: MIC by micro-liquid dilution method (CLSI); format: cell-based; conditions: Escherichia coli
[9] = system: K. pneumoniae ATCC BAA-1705 (KPC-2); test: MIC by micro-liquid dilution method (CLSI); format: cell-based, Klebsiella pneumonia; conditions: Klebsiella pneumoniae, ATCCBAA1705
[10] = system: K. pneumoniae ATCC BAA-2470 (NDM-1); test: MIC by micro-liquid dilution method (CLSI); format: cell-based, Klebsiella pneumonia; conditions: Klebsiella pneumoniae, ATCCBAA2470
[11] = Pharmacokinetic experiment of the compounds in mice; format: in vivo; conditions: mouse, plasma, 2 mg/kg, Male CD-1 mice, fasting, 2 mpk; for Vd / clearance / AUC(0-t) / half-life / C0: intravenous injection; for Vd: read-out: Apparent distribution volume Vdss; for clearance: read-out: Clearance rate Cl; for AUC(0-t): read-out: Exposure AUC0-last; for half-life: read-out: Half-life period T1/2 (converted); for C0: read-out: Initial concentration C0; for bioavailability / Cmax: second section of Table 7 (intravenous injection); for Cmax: read-out: Maximum concentration Cmax
Method: In this experiment, six CD-1 mice (males) were divided into 2 groups (2 groups) according to their similar body weight. Group 1 and Group 2 were given respectively a single intravenous and intraperitoneal injection of the compounds of embodiment 13, embodiment 17, embodiment 32 and embodiment 34, each compound was at 2 mg/kg. The vehicles for intravenous and intraperitoneal injections were 5% dimethyl sulfoxide/95% water (10% polyoxyethylene castor oil), K2-EDTA (anticoagulant).
About 0.02 mL of blood samples from the saphenous vein were collected from all experimental animals, and the actual blood collection time was recorded. In this experiment, the deviation between the actual blood collection time and the theoretical blood collection time was in accordance with the regulations (the deviation of time points within 1 hour after administration were within 1 minute, and other deviations were within 5% of the theoretical time). After the blood samples were collected, they were immediately transferred to labeled centrifuge tubes containing K2 EDTA (0.5 M), followed by centrifugation (3,000 g, 4° C., 15 minutes) and the plasma was collected. The plasma was transferred to pre-cooled centrifuge tubes, quickly frozen in dry ice, and stored in an ultra-low temperature refrigerator at −60° C. or lower until LC-MS/MS analysis.

[12] = system: Acinetobacter baumannii ATCC-BAA-1605; test: MIC on Acinetobacter baumannii strains; format: cell-based; conditions: ATCCBAA1605, ATCC-BAA-1605, read-out: MIC
Source text: (§2) Twelve strains of Acinetobacter baumannii, A. baumannii ATCC 17978 (ATCC-BAA-1605, ATCC-BAA-1789, ATCC-BAA-1790, ATCC-BAA-1791, ATCC-BAA-1792, ATCC-BAA-1793, ATCC-BAA-1794, ATCC-BAA-1795, ATCC-BAA-1799, ATCC-BAA-1800, ATCC 19606, ATCC 17978) were used to determine the minimum inhibitory concentration (MIC) of the compounds by micro-liquid dilution method according to the Institute of Clinical and Laboratory Standard (CLSI) requirements.

[13] = system: Acinetobacter baumannii ATCC-BAA-1793; test: MIC on Acinetobacter baumannii strains; format: cell-based; conditions: ATCCBAA1793, ATCC-BAA-1793, read-out: MIC
Source text: as §2

[14] = system: Acinetobacter baumannii ATCC-BAA-1791; test: MIC on Acinetobacter baumannii strains; format: cell-based; conditions: ATCCBAA1791
Source text: as §2

[15] = system: Pseudomonas aeruginosa PA14; test: Lungs of immunosuppressed mice infected with Pseudomonas aeruginosa (1), lung bacterial load; format: in vivo; conditions: 24 hours after infection, day, ip at 2 h, 4 h, 6 h, 8 h
Method: Pseudomonas aeruginosa PA14. 64 mice were intraperitoneally injected with 150 mg/kg cyclophosphamide on the first day and the fourth day to give immunosuppressed mice. […] [table] The mice were injected with 50 μL of bacterial solution (2×10^3 CFU) through the airway. 2 hours after the infection, 4 mice in the model group was sacrificed by removing cervical vertebra. Two hours after infection, the drugs were administered by groups, and the mice were administered intraperitoneally once at 2 hours, 4 hours, 6 hours, and 8 hours, a total of 4 times. Mice of each group were sacrificed by removing cervical vertebra 24 hours after infection, lung and kidney tissues were taken aseptically and put into sterilized tissue homogenate tubes, weighed, and an appropriate amount of normal saline (NS) was added, the mixture was homogenized by a homogenizer for 1 min, the lung tissues of the model group were diluted 10^4, 10^5, 10^6 times, the lung tissues of each administration group were diluted 10, 100 times, the kidney tissues of the model group were diluted 10^2, […], 10^4 times, and the lung tissues of each administration group were diluted 10 times, the obtained mixtures were coated on TSA plates using spiral coater, then incubated at 37° C. overnight, and the CFU was counted with a colony counter. Graphpad Prism mapping software was used to make scatter plots of lung tissue CFU. SPSS19.0 software was used to count CFU and average body weight, and analysis of variance was used to analyze differences between groups.

[16] = A. baumannii ATCC17978, read-out: MIC
[17] = K. pneumoniae ATCCBAA-205, read-out: MIC
[18] = P. aeruginosa PA 14, read-out: MIC
[19] = E. coli ATCCBAA-2523, read-out: MIC
[20] = E. coli NCTC13476, read-out: MIC
[21] = E. coli ATCC25922, read-out: MIC
[22] = K. pneumoniae ATCCBAA-1705, read-out: MIC
[23] = K. pneumoniae ATCCBAA-2470, read-out: MIC

Structure (SMILES)	MIC [2, 16] [µg/mL]	MIC [3, 17] [µg/mL]	MIC [4, 18] [µg/mL]	MIC [5] [µg/mL]	MIC [7, 20] [µg/mL]	MIC [9, 22] [µg/mL]	MIC [10, 23] [µg/mL]	MIC ([1]; ATCC35151) [µg/mL]	MIC [6] [µg/mL]	Vd [11] [L/kg]	clearance [11] [mL/min/kg]	AUC(0-t) [11] [µM·h]	half-life [11] [min]	C0 [11] [µM]	bioavailability [11] [%]	Cmax [11] [µM]	also measured
CC1(C)[C@H](NC(=O)/C(=N\OCCOc2ccc3c(c2)CN(C(=N)N)CC3)c2csc(N)n2)C(=O)N1OS(=O)(=O)O [Compound 10]	4 (≈ 6.7 µM)	16 (≈ 26.8 µM)	8 (≈ 13.4 µM)	≤ 0.125	2 (≈ 3.35 µM)	4 (≈ 6.7 µM)	4 (≈ 6.7 µM)										MIC ([1]; P. aeruginosa ATCC35151, read-out: MIC): 0.25 µg/mL (≈ 0.419 µM); MIC [6, 19]: 0.25 µg/mL (≈ 0.419 µM); MIC [8, 21]: 1 µg/mL (≈ 1.68 µM)
CC1(C)[C@H](NC(=O)/C(=N\OCCOc2ccc3c(c2)CCN(C(=N)N2CCNCC2)C3)c2csc(N)n2)C(=O)N1OS(=O)(=O)O [Compound 11]	2 (≈ 3 µM)	16 (≈ 24 µM)	4 (≈ 6.01 µM)	≤ 0.125	0.5 (≈ 0.751 µM)	1 (≈ 1.5 µM)	1 (≈ 1.5 µM)	≤ 0.125	≤ 0.125								MIC [8, 21]: 0.25 µg/mL (≈ 0.376 µM)
CC1(C)[C@H](NC(=O)/C(=N\OCCOc2ccc3c(c2)CCN(C(=N)NC2CCNCC2)C3)c2csc(N)n2)C(=O)N1OS(=O)(=O)O [Compound 12]	0.5 (≈ 0.736 µM)	16 (≈ 23.5 µM)	2 (≈ 2.94 µM)	≤ 0.125	0.25 (≈ 0.368 µM)	1 (≈ 1.47 µM)	1 (≈ 1.47 µM)	≤ 0.125	≤ 0.125								MIC ([8]; ATCC25922): ≤ 0.125 µg/mL
CC1(C)[C@H](NC(=O)/C(=N\OCCOc2ccc3c(c2)CN(C(=N)NCCCN)C3)c2csc(N)n2)C(=O)N1OS(=O)(=O)O [Compound 13]										0.281	8.51	6.73	28.6	18.9	88.4	5.76	
CC1(C)[C@H](NC(=O)/C(=N\OCCOc2ccc3c(c2)CN(C(=N)N(CCCN)CCCN)C3)c2csc(N)n2)C(=O)N1OS(=O)(=O)O [Compound 17]	≤ 0.125	2 (≈ 2.87 µM)	0.5 (≈ 0.718 µM)			0.25 (≈ 0.359 µM)	0.25 (≈ 0.359 µM)			0.237	4.6	11	35.8	17	131	10.6	MIC [12]: 4 µg/mL (≈ 5.74 µM); MIC [13]: 4 µg/mL (≈ 5.74 µM); MIC [14]: 0.25 µg/mL (≈ 0.359 µM); MIC [6, 19]: ≤ 0.125 µg/mL
CC1(C)[C@H](NC(=O)/C(=N\O[C@@H](COc2ccc3c(c2)CN(C(=N)N(CCCN)CCCN)C3)C(=O)O)c2csc(N)n2)C(=O)N1OS(=O)(=O)O [Compound 32]										0.0636	1.57	5.77	30.8	11.3	140	8	LOG10-of bacterial load ([15]; total dosage 60 mg/kg): 0**; LOG10-of bacterial load ([15]; total dosage 120 mg/kg): 0**; LOG10-of bacterial load ([15]; total dosage 200 mg/kg): 0**
CC1(C)[C@H](NC(=O)/C(=N\O[C@@H](COc2ccc3c(c2)CN(C(=N)NCCCN)C3)C(=O)O)c2csc(N)n2)C(=O)N1OS(=O)(=O)O [Compound 34]										0.274	10.4	4.95	22.6	14.4	93.3	5.55	LOG10-of bacterial load ([15]; total dosage 60 mg/kg): 0**; LOG10-of bacterial load ([15]; total dosage 120 mg/kg): 0**; LOG10-of bacterial load ([15]; total dosage 200 mg/kg): 1.10 ± 1.75
CC1(C)[C@H](C(=O)O)N2C(=O)C[C@H]2S1(=O)=O [Sulbactam, reference compound]				32 (≈ 137 µM)				64 (≈ 274 µM)	64 (≈ 274 µM)								MIC ([2]; ATCC17978): 2 µg/mL (≈ 8.57 µM); MIC [3]: 64 µg/mL (≈ 274 µM); MIC [4]: 8 µg/mL (≈ 34.3 µM); MIC ([7]; NCTC13476): > 128 µg/mL; MIC ([8]; ATCC25922): 64 µg/mL (≈ 274 µM); MIC [9]: > 128 µg/mL; MIC [10]: > 128 µg/mL
